Test results from PubChem BioAssay (NCI).
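Where inhibition never reached the appropriate level, the endpoint shown equals the highest concentration tested. Otherwise, values were interpolated linearly from a five-concentration, 48-hour dose response in 96-well plates. Here, GI50 denotes the concentration required for 50% inhibition of growth. TGI denotes the concentration required for complete inhibition of growth.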

Experiments:
Assay in all cases: inhibition of tumour cell growth, NCI panel, 48 h; in the data active = GI50 below about 0.43 µM; inactive = the rest
A549 NSCLC = test system: A549 NSCLC
TK-10 renal = test system: TK-10 renal
SNB-75 CNS = test system: SNB-75 CNS
MCF7 breast = test system: MCF7 breast
CAKI-1 renal = test system: CAKI-1 renal
SF-268 CNS = test system: SF-268 CNS
OVCAR-5 ovarian = test system: OVCAR-5 ovarian
SF-295 CNS = test system: SF-295 CNS
U251 CNS = test system: U251 CNS
LOX IMVI melanoma = test system: LOX IMVI melanoma

COc1cc2cc(C(=O)N3C[C@H](CCl)c4c3cc(N)c3ccccc43)[nH]c2c(OC)c1OC
10.3 µM: TGI (TK-10 renal)
active: GI50 (SNB-75 CNS) 0.0123 µM | GI50 (MCF7 breast) 0.005 µM | GI50 (SF-268 CNS) 0.005 µM | GI50 (OVCAR-5 ovarian) 0.005 µM | GI50 (SF-295 CNS) 0.005 µM | GI50 (U251 CNS) 0.005 µM | GI50 (LOX IMVI melanoma) 0.005 µM
0.0458 µM: TGI (SNB-75 CNS)
> 50 µM: TGI (A549 NSCLC) | TGI (SF-295 CNS) | TGI (U251 CNS)
0.552 µM: TGI (OVCAR-5 ovarian)
< 0.005 µM: TGI (CAKI-1 renal)
1.74 µM: TGI (SF-268 CNS)
0.0581 µM: TGI (LOX IMVI melanoma)
13 µM: TGI (MCF7 breast)

COc1cc(S(=O)(=O)Nc2ccc(C(=O)/C=C/c3ccc(O)cc3)cc2)ccc1F
inactive: GI50 (A549 NSCLC) > 100 µM | GI50 (TK-10 renal) 47 µM | GI50 (SNB-75 CNS) 87.5 µM | GI50 (MCF7 breast) > 100 µM | GI50 (CAKI-1 renal) > 100 µM | GI50 (SF-268 CNS) > 100 µM | GI50 (OVCAR-5 ovarian) > 100 µM | GI50 (SF-295 CNS) > 100 µM | GI50 (U251 CNS) > 100 µM | GI50 (LOX IMVI melanoma) > 100 µM
> 100 µM: TGI (A549 NSCLC) | TGI (TK-10 renal) | TGI (SNB-75 CNS) | TGI (MCF7 breast) | TGI (CAKI-1 renal) | TGI (SF-268 CNS) | TGI (OVCAR-5 ovarian) | TGI (SF-295 CNS) | TGI (U251 CNS) | TGI (LOX IMVI melanoma)
